Laboratory results: US20210144999A1, “COMPOSITIONS COMPRISING HYDROXYCINNAMIC ACID AND RELATED CONJUGATES, ANALOGUES AND DERIVATIVES, AND METHODS OF USE THEREOF” (YEDA RESEARCH AND DEVELOPMENT CO. LTD., priority 2017, published 2021)
Entries after “also recorded” stand apart in the source; their conditions may differ.

Key:
B. subtilis biofilms = experiment: B. subtilis biofilm stability / maintenance in vitro; type: cell-based; details: in vitro and in vivo, specific environmental conditions such as iron starvation
Procedure: Shown are biofilms of treated and untreated B. subtilis biofilms.
Strains and Media All experiments were performed with B. subtilis NCBI3610 and its derivatives. Assays were carried out with the biofilm-inducing medium, MSgg: 5 mM potassium phosphate, 100 mM MOPS (pH 7), 2 mM MgCl2, 50 μM MnCl2, 1 μM ZnCl2, 2 μM thiamine, 0.5% glycerol, 0.5% glutamate, 50 μg/ml tryptophan, 50 μg/mlphenylalanine 50 μg/ml threonine, 700 μM CaCl2, and 50 μM (for growth assays) or 125 μM (for biofilm assays) FeCl3^1. A solid MSgg medium was obtained by adding Bacto agar (Difco) to a final concentration of 1.5%. When necessary, selective medium was prepared with LB-agar or LB broth, supplemented with: 100 μg/ml ampicillin (amp) (AG Scientific), or 10 μg/ml kanamycin (kan) (AG Scientific), or 10 μg/ml chloramphenicol (cam) (Amresco), or 10 μg/ml tetracycline (tet) (Amresco), or 100 μg/ml spectinomycin (spec) (Tivan Biotech), or 1 μg/mlerythromycin (erm) (Amresco)+25 μg/ml lincomycin (linc) (Sigma Aldrich).

[1] = system: P. syringae strain DC3000 pv tomato; experiment: Bioprotection of tomato plants by B. subtilis against pseudomonas syringae; type: in vivo; details: 5 μM RID with 1000 B. subtilis cells; 100 or 10,000 pathogen cells
Procedure: FIGS. 18A-18B: Purified RID improved the bioprotection versus pseudomonas syringae achieved by Bacillus. Bacillus strain B. subtilis 3610 (B.S) was used. The bacterial strain was maintained on LB plates. 1000 cells either applied or non-applied with 5 μM of RID were added to tomato plants grown on agrophonic beads. Plants were incubated at 28±2° C. for 15 days. P. syringae strain DC3000 pv tomato (P.S) culture was grown in LB at 37° C. to OD600=0.2 to 0.3 (3*10^8 cells per ml) and diluted to 100 cells (FIG. 18A) 10,000 (FIG. 18B) cells retrospectively (w/v) into the plant media. Plants were further incubated at 28±2° C. for 10 days and the growth of the pathogen was measured and compared with the control. Three replications were maintained for each assay. SD represents the average of three independent experiments.
Bacillus strain B. subtilis 3610 (B.S) was maintained on LB plates. 1000 cells of B.S. with or without the addition of 5 μM of RID were added to tomato plants grown on agrophonic beads. Plants were incubated at 28±2° C. for 15 days.
P. syringae strain DC3000 pv tomato (P.S) was grown in LB at 37° C. to OD600=0.2 to 0.3 (3*10^8 cells per ml) and diluted to 10,000 cells retrospectively (w/v) into the plant media. Plants were further incubated at 28±2° C. for 10 days and the growth ofthe pathogen was measured and compared with the control. […]

rhyzoctonia solani = experiment: Bioprotection of tomato plants by B. subtilis against rhyzoctonia solani; type: in vivo; details: RID with B. subtilis
Procedure: ISR assay. Arabidopsis thaliana or Microtome tomato seedlings were grown on NITCH-agar for 10 days. Then each seedling was transferred to separate solid MSgg plate. In order to test the effects of either treated or untreated B. subtilis on the Induced systemic resistance (ISR), bacterial cells were inoculated aside to the root (as mentioned above) and incubated at 23° C. for five days. Alternatively and as indicated in the corresponding figure legend, we inoculated the bacterial cells directly on the root. Then the first leaf was infected by puncturing by needle and inoculating with the necrosis-causing pathogens, Pseudomonas syringae DC3000 or rhyzoctonia solani (Kuhn). Five days after infection with P. syringae, plants were further analyzed.
Tomato infections (FIGS. 18A, 18B and 19).

P. syringae = experiment: Bioprotection of Arabidopsis thaliana by B. subtilis against pseudomonas syringae; type: in vivo; details: 5 μM purified RID with 1000 B. subtilis cells, 100 or 10,000 pathogen cells
Procedure: (§1) FIG. 19: Purified RID improved the bioprotection versus pseudomonas syringae and rhyzoctonia solani achieved by Bacillus. We used Bacillus strain B. subtilis 3610 (B.S). The bacterial strain was maintained on LB plates. 1000 cells either applied or non-applied with 5 μM of purified RID were added to Arabidopsis thaliana plants grown on MS solid media. Plants were incubated at 26±2° C. for 5 days. P. syringae (P.S) or R. solani (R.S) were grown in TSB at 37° C. to OD600=0.2 to 0.3 (3*10^8 cells per ml) and diluted to 100 cells, or 10,000 cells retrospectively (w/v) into the plant media. Plants were further incubated at 28±2° C. for 5 days and the growth of the pathogen was measured and compared with the control. Three replications were maintained for each assay. SD represents the average of three independent experiments.
(§2) Bacillus strain B. subtilis 3610 (B.S) was maintained on LB plates. 1000 cells with or without 5 μM of purified RID were added to Arabidopsis thaliana plants grown on MS solid media. Plants were incubated at 26±2° C. for 5 days. P. syringae (P.S) or R. solani (R.S) were grown in TSB at 37° C. to OD600=0.2 to 0.3 (3*10^8 cells per ml) and diluted to 100 cells, or 10,000 cells retrospectively (w/v) into the plant media. Plants were further incubated at 28±2° C. for 5 days and the growth of the pathogen was measured and compared with the control. […]

R. solani = experiment: Bioprotection of Arabidopsis thaliana by B. subtilis against rhyzoctonia solani; type: in vivo; details: 5 μM purified RID with 1000 B. subtilis cells, 100 or 10,000 pathogen cells
Procedure: as §1, §2

[2] = system: B. subtilis 3610 Δ yclQ mutant biofilms; experiment: Biofilm (pellicle) development of B. subtilis strain defective in iron uptake; type: cell-based; details: Δ yclQ mutant pellicles with or without purified RID
Text: Biofilms grown in the presence and absence of RID in B. subtilis 3610 and its derivate (Δ yclQ) mutant in iron uptake pathways (Zawadzka et al., 2009). Untreated pellicles are shown in the top panel. Pellicles applied with purified RID are shown below.

NCCCCNC(=O)/C=C/c1ccc(O)c(O)c1 [RID, caffeoyl putrescine]
disassembly of B. subtilis biofilms (B. subtilis biofilms): blocks the disassembly of B. subtilis biofilms in vitro and in vivo
B. subtilis-mediated protection of tomato plants from pseudomonas syringae pv. Tomato [1]: enhanced the protective effects of Bacillus subtilis on tomato plant mortality; also recorded: improved significantly the duration of protection achieved by Bacillus subtilis and the resistance to high inoculum of infection
B. subtilis-mediated protection of tomato plants from rhyzoctonia solani (rhyzoctonia solani): enhanced the protective effects of Bacillus subtilis on tomato plant mortality
B. subtilis-mediated protection of Arabidopsis (Brassicaceae) from pseudomonas syringae (P. syringae): improved significantly protection achieved by Bacillus subtilis
B. subtilis-mediated protection of Arabidopsis (Brassicaceae) from pseudomonas syringae (P. syringae; listed as purified RID): significantly improve the protection of Brassicaceae plants
B. subtilis-mediated protection of Arabidopsis (Brassicaceae) from rhyzoctonia solani (R. solani): improved significantly protection achieved by Bacillus subtilis
B. subtilis-mediated protection of Arabidopsis (Brassicaceae) from rhyzoctonia solani (R. solani; listed as purified RID): significantly improve the protection of Brassicaceae plants
biofilm development of iron-uptake defective B. subtilis [2]: compensated for the biofilm defect; also recorded: can promote the development of biofilms
